Experimental data published in patent US8802597B2, “Herbicidal pyrimidines” (E I du Pont de Nemours and Company, priority 2003, dated 2014).

How the values were obtained:
Assay type in all cases: in vivo
[1] = tested on: blackgrass (Alopecurus myosuroides); assay: Test B postemergence; conditions: scale 0 to 100 (0 no effect, 100 complete control)
Outline: (§1)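 Greenhouse whole-plant test; surfactant-containing non-phytotoxic solvent formulation; pre- and postemergence applications made simultaneously; post plants 2–18 cm, 1- to 4-leaf; visual scoring at 13–15 days on 0–100 scale relative to controls.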

wild oat (Avena fatua) = assay: Test B postemergence; conditions: scale 0 to 100 (0 no effect, 100 complete control)
Outline: as §1

rice (Oryza sativa) = assay: Test B flooded paddy test; conditions: Flood, scale 0 to 100
Outline: (§2)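 Plants were grown to the 2-leaf stage before treatment, then kept in a greenhouse for 13 to 15 days. Injury was rated visually against untreated controls on a 0 to 100 scale, where 0 is no effect and 100 is complete control.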

[2] = tested on: umbrella sedge (Cyperus difformis); assay: Test B flooded paddy test; conditions: Flood, scale 0 to 100
Outline: as §2

[3] = tested on: duck salad (Heteranthera limosa); assay: Test B flooded paddy test; conditions: Flood, scale 0 to 100
Outline: as §2

[4] = tested on: barnyardgrass (Echinochloa crus-galli); assay: Test B flooded paddy test; conditions: Flood, scale 0 to 100
Outline: as §2

[5] = tested on: pigweed (Amaranthus retroflexus); assay: Test B pre/postemergence; conditions: for Pigweed plant response rating: Postemergence; for Plant response rating, Pigweed: Preemergence
Outline: as §1

[6] = tested on: cocklebur (Xanthium strumarium); assay: Test B pre/postemergence; conditions: for Cocklebur plant response rating: Postemergence; for Plant response rating, Cocklebur: Preemergence
Outline: as §1

[7] = tested on: giant foxtail (Setaria faberii); assay: Test B pre/postemergence; conditions: for Foxtail, Giant plant response rating: Postemergence; for Plant response rating, Foxtail, Giant: Preemergence
Outline: as §1

[8] = tested on: lambsquarters (Chenopodium album); assay: Test B pre/postemergence; conditions: for Lambsquarters plant response rating: Postemergence; for Plant response rating, Lambsquarters: Preemergence
Outline: as §1

[9] = tested on: crabgrass (Digitaria sanguinalis); assay: Test B pre/postemergence; conditions: for Crabgrass plant response rating: Postemergence; for Plant response rating, Crabgrass: Preemergence
Outline: as §1

[10] = tested on: barnyardgrass (Echinochloa crus-galli); assay: Test B pre/postemergence; conditions: for Barnyardgrass plant response rating: Postemergence; for Plant response rating, Barnyardgrass: Preemergence
Outline: as §1

[11] = tested on: morningglory (Ipomoea coccinea); assay: Test B pre/postemergence; conditions: for Morningglory plant response rating: Postemergence; for Plant response rating, Morningglory: Preemergence
Outline: as §1

corn (Zea mays) = assay: Test B pre/postemergence; conditions: for Corn plant response rating: Postemergence; for Plant response rating, Corn: Preemergence
Outline: as §1

[12] = tested on: velvetleaf (Abutilon theophrasti); assay: Test B pre/postemergence; conditions: for Velvetleaf plant response rating: Postemergence; for Plant response rating, Velvetleaf: Preemergence
Outline: as §1

[13] = tested on: wheat (Triticum aestivum); assay: Test B pre/postemergence; conditions: for Wheat plant response rating: Postemergence; for Plant response rating, Wheat: Preemergence
Outline: as §1

[14] = tested on: Surinam grass (Brachiaria decumbens); assay: Test B pre/postemergence; conditions: for Surinam Grass plant response rating: Postemergence; for Plant response rating, Surinam Grass: Preemergence
Outline: as §1

[15] = 62 g ai/ha, scale 0 to 100 (0 no effect, 100 complete control)
[16] = 125 g ai/ha, scale 0 to 100 (0 no effect, 100 complete control)
[17] = 62 g ai/ha, scale 0 to 100, 0 no effect, 100 complete control

Nc1nc(C2CC2)nc(C(=O)O)c1Cl [Compound 135, 6-amino-5-chloro-2-cyclopropyl-4-pyrimidinecarboxylic acid]
40: Wheat plant response rating [13, 15]
70: Blackgrass plant response rating ([1]; 125 g ai/ha) | Plant response rating, Sedge, Umbrella ([2]; 125 g ai/ha) | Crabgrass plant response rating [9, 16] | Barnyardgrass plant response rating [10, 15] | Plant response rating, Barnyardgrass [10, 17] | Plant response rating, Wheat [13, 17]
80: Plant response rating, Sedge, Umbrella ([2]; 500 g ai/ha) | Plant response rating, Barnyardgrass ([4]; 500 g ai/ha) | Foxtail, Giant plant response rating [7, 15] | Foxtail, Giant plant response rating [7, 16] | Plant response rating, Crabgrass [9, 17] | Corn plant response rating (corn (Zea mays); [16]) | Plant response rating, Corn (corn (Zea mays); [16]) | Surinam Grass plant response rating [14, 15] | Surinam Grass plant response rating [14, 16] | Plant response rating, Surinam Grass [14, 17]
90: Plant response rating, Ducksalad ([3]; 500 g ai/ha) | Plant response rating, Foxtail, Giant [7, 16] | Plant response rating, Crabgrass [9, 16] | Barnyardgrass plant response rating [10, 16] | Plant response rating, Barnyardgrass [10, 16] | Plant response rating, Velvetleaf [12, 17] | Plant response rating, Wheat [13, 16] | Plant response rating, Surinam Grass [14, 16]
20: Plant response rating, Rice (rice (Oryza sativa); 125 g ai/ha)
60: Blackgrass plant response rating ([1]; 62 g ai/ha) | Oat, Wild plant response rating (wild oat (Avena fatua); 62 g ai/ha) | Oat, Wild plant response rating (wild oat (Avena fatua); 125 g ai/ha) | Plant response rating, Rice (rice (Oryza sativa); 500 g ai/ha) | Plant response rating, Ducksalad ([3]; 125 g ai/ha) | Plant response rating, Foxtail, Giant [7, 17] | Crabgrass plant response rating [9, 15] | Wheat plant response rating [13, 16]
50: Corn plant response rating (corn (Zea mays); [15]) | Plant response rating, Corn (corn (Zea mays); [17])
30: Plant response rating, Barnyardgrass ([4]; 125 g ai/ha)
100: Pigweed plant response rating [5, 15] | Pigweed plant response rating [5, 16] | Plant response rating, Pigweed [5, 17] | Plant response rating, Pigweed [5, 16] | Cocklebur plant response rating [6, 15] | Cocklebur plant response rating [6, 16] | Plant response rating, Cocklebur [6, 17] | Plant response rating, Cocklebur [6, 16] | Lambsquarters plant response rating [8, 15] | Lambsquarters plant response rating [8, 16] | Plant response rating, Lambsquarters [8, 17] | Plant response rating, Lambsquarters [8, 16] | Morningglory plant response rating [11, 15] | Morningglory plant response rating [11, 16] | Plant response rating, Morningglory [11, 17] | Plant response rating, Morningglory [11, 16] | Velvetleaf plant response rating [12, 15] | Velvetleaf plant response rating [12, 16] | Plant response rating, Velvetleaf [12, 16]
